We go through 15 molecules from patent US12297246B2, “Interleukin-15 activity antagonist peptide” (CENTRO DE INGENIERÍA GENÉTICA Y BIOTECNOLOGÍA, priority 2017, dated 2025).

“Also recorded” adds a separate entry of the source. Where a SMILES comes first, the peptide text is derived from it. Bridges are numbered along the chain shown (N, C = ends). Roman numbers before positions name the chains, in order. Where no end group is shown, it is not given here. [ ]: non-standard residue; d: D form.

Data set [1] deals with CTLL-2 cells. The experiment in a line: IL-15-induced CTLL-2 cell proliferation assay. To be noted: for IC50: fixed IL-15 concentration of 300 μg/mL, colorimetric assay. The class given is cell-based. The source says:
The proliferation of the CTLL-2 cell line is dependent on IL-15. Molecular entities that bind to IL-15 or its receptor subunit inhibit the proliferation of this cell line. To evaluate the antagonist capacity of peptides designed and obtained in the present invention, was followed the procedure described by Santos et al in 2012. Peptide 1 was included in all assays.
The realization of this colorimetric assay allowed calculating the IC50 value of each peptide, for a fixed IL-15 concentration of 300 μg/mL.

Data set [2] is described as follows: Solubility of the peptides.
Data set [3] has as its target T1, IL-15/IL-15Rα complex (Homo sapiens, UniProt Q13261).
T1 construct: all evaluated peptides recognized IL-15Rα immobilized on the ELISA plate
As to the kind of experiment: Inhibition of IL-15/IL-15Rα complex formation (ELISA-type test). It counts as binding. As for the experimental part:
Once the synthetic peptides were obtained and characterized, their binding capacity to IL-15Rα was determined. This evaluation was carried out by means of an ELISA type test. In addition, the % inhibition of the formation of the IL-15/IL-15Rα complex presented by each peptide was calculated. Both the procedure for the ELISA-type test and the equation used to calculate the % inhibition of the formation of the IL-15/IL-15Rα complex are detailed in the article published by Santos et al in 2012 (Santos A. et al. J. Pept. Sci. 2012; 18: 25-29).

T1 sequence (Q13261 31-205 limits assumed, one chain of several): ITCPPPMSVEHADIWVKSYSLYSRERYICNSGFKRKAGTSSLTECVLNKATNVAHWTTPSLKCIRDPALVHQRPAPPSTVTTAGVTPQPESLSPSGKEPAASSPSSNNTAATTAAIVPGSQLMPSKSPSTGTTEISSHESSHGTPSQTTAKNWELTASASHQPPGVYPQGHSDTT

In the case of `CSCC[C@H](NC(=O)[C@H](C)NC(=O)[C@@H](NC(=O)[C@@H](NC(=O)[C@@H](N)CCCCN)C(C)C)[C@@H](C)O)C(=O)N[C@@H](CCCCN)C(=O)N[C@@H](CS)C(=O)N[C@@H](Cc1ccccc1)C(=O)N[C@H](CC(C)C)C(=O)N[C@@H](CC(C)C)C(N)=O` [Peptide 10] (H-KVTAMKCF[dL]L-NH2), the IC50 (usually the concentration at which inhibition is half-maximal) in data set [1] came to 134 µM.

Consider `CSCC[C@H](NC(=O)[C@@H](C)NC(=O)[C@@H](NC(=O)[C@@H](NC(=O)[C@H](N)CCCCN)C(C)C)[C@@H](C)O)C(=O)N[C@@H](CCCCN)C(=O)N[C@@H](CS)C(=O)N[C@@H](Cc1ccccc1)C(=O)N[C@@H](CC(C)C)C(=O)N[C@@H](CC(C)C)C(N)=O` [Peptide 13] (H-[dK]VT[dA]MKCFLL-NH2), for which the solubility result in data set [2] is listed as “completely soluble”. Further, the “% inhibition of IL-15/IL-15Rα complex formation” value (“% inhibition” for short) in data set [3] is 89%. This molecule registered an IC50 in data set [1] of 29 µM.

In data set [1], `CSCC[C@H](NC(=O)[C@H](C)NC(=O)[C@@H](NC(=O)[C@@H](NC(=O)[C@@H](N)CCCCN)C(C)C)[C@@H](C)O)C(=O)N[C@@H](CCCCN)C(=O)N[C@@H](CS)C(=O)N[C@@H](Cc1ccccc1)C(=O)N[C@@H](CC(C)C)C(=O)N[C@H](CC(C)C)C(N)=O` [Peptide 11] (H-KVTAMKCFL[dL]-NH2) yielded an IC50 of 133 µM.

For the molecule `CSCC[C@H](NC(=O)[C@@H](C)NC(=O)[C@@H](NC(=O)[C@@H](NC(=O)[C@@H](N)CCCCN)C(C)C)[C@@H](C)O)C(=O)N[C@@H](CCCCN)C(=O)N[C@@H](CS)C(=O)N[C@@H](Cc1ccccc1)C(=O)N[C@@H](CC(C)C)C(=O)N[C@@H](CC(C)C)C(N)=O` [Peptide 5] (H-KVT[dA]MKCFLL-NH2), in data set [2], the solubility entry is “completely soluble”. Moreover, the “% inhibition” value in data set [3] came to 92%. In data set [1], the IC50 turned out to be 28 µM.

Turning to `CSCC[C@H](NC(=O)[C@@H](C)NC(=O)[C@@H](NC(=O)[C@@H](NC(=O)[C@@H](N)CCCCN)C(C)C)[C@@H](C)O)C(=O)N[C@@H](CCCCN)C(=O)N[C@H](CS)C(=O)N[C@@H](Cc1ccccc1)C(=O)N[C@@H](CC(C)C)C(=O)N[C@@H](CC(C)C)C(N)=O` [Peptide 15] (H-KVT[dA]MK[dC]FLL-NH2; N-terminus assumed), the “antagonist effect compared with Peptide 1” value in data set [1] (IL-15-induced CTLL-2 proliferation) is given as “equal or less antagonist effect than the original peptide; also recorded: less active than Peptide 1”. Further, the IC50 in data set [1] stood at 296 µM.

In turn, `CSCC[C@H](NC(=O)[C@H](C)NC(=O)[C@H](NC(=O)[C@@H](NC(=O)[C@@H](N)CCCCN)C(C)C)[C@H](C)O)C(=O)N[C@@H](CCCCN)C(=O)N[C@@H](CS)C(=O)N[C@@H](Cc1ccccc1)C(=O)N[C@@H](CC(C)C)C(=O)N[C@@H](CC(C)C)C(N)=O` [Peptide 4] (H-KV[dT]AMKCFLL-NH2) showed an IC50 in data set [1] of 159 µM.

`CSCC[C@H](NC(=O)[C@H](C)NC(=O)[C@@H](NC(=O)[C@H](NC(=O)[C@@H](N)CCCCN)C(C)C)[C@@H](C)O)C(=O)N[C@@H](CCCCN)C(=O)N[C@@H](CS)C(=O)N[C@@H](Cc1ccccc1)C(=O)N[C@@H](CC(C)C)C(=O)N[C@@H](CC(C)C)C(N)=O` [Peptide 3] (H-K[dV]TAMKCFLL-NH2) showed an IC50 in data set [1] of 142 µM.

As for `CSCC[C@H](NC(=O)[C@H](C)NC(=O)[C@@H](NC(=O)[C@@H](NC(=O)[C@H](N)CCCCN)C(C)C)[C@@H](C)O)C(=O)N[C@@H](CCCCN)C(=O)N[C@@H](CS)C(=O)N[C@@H](Cc1ccccc1)C(=O)N[C@@H](CC(C)C)C(=O)N[C@@H](CC(C)C)C(N)=O` [Peptide 2] (H-[dK]VTAMKCFLL-NH2), in data set [1], the midpoint of inhibition, the IC50, lay at 100 µM.

The molecule `CSCC[C@H](NC(=O)[C@H](C)NC(=O)[C@@H](NC(=O)[C@@H](NC(=O)[C@@H](N)CCCCN)C(C)C)[C@@H](C)O)C(=O)N[C@@H](CCCCN)C(=O)N[C@@H](CS)C(=O)N[C@H](Cc1ccccc1)C(=O)N[C@@H](CC(C)C)C(=O)N[C@@H](CC(C)C)C(N)=O` [Peptide 9] (H-KVTAMKC[dF]LL-NH2) returned an IC50 in data set [1] of 118 µM.

In the case of `CSCC[C@H](NC(=O)[C@@H](C)NC(=O)[C@@H](NC(=O)[C@@H](NC(=O)[C@@H](N)CCCCN)C(C)C)[C@@H](C)O)C(=O)N[C@@H](CCCCN)C(=O)N[C@@H](CSSC[C@H](NC(=O)[C@H](CCCCN)NC(=O)[C@H](CCSC)NC(=O)[C@@H](C)NC(=O)[C@@H](NC(=O)[C@@H](NC(=O)[C@@H](N)CCCCN)C(C)C)[C@@H](C)O)C(=O)N[C@@H](Cc1ccccc1)C(=O)N[C@@H](CC(C)C)C(=O)N[C@@H](CC(C)C)C(N)=O)C(=O)N[C@@H](Cc1ccccc1)C(=O)N[C@@H](CC(C)C)C(=O)N[C@@H](CC(C)C)C(N)=O` [Peptide 12] (I: H-KVT[dA]MKCFLL-NH2 / II: H-KVT[dA]MKCFLL-NH2; disulfide I:7-II:7), the solubility result in data set [2] is given as “completely soluble”. Besides, in data set [3], the “% inhibition” value was 96%. In addition, the IC50 in data set [1] is 8 µM.

For the molecule `CSCC[C@@H](NC(=O)[C@H](C)NC(=O)[C@@H](NC(=O)[C@@H](NC(=O)[C@@H](N)CCCCN)C(C)C)[C@@H](C)O)C(=O)N[C@@H](CCCCN)C(=O)N[C@@H](CS)C(=O)N[C@@H](Cc1ccccc1)C(=O)N[C@@H](CC(C)C)C(=O)N[C@@H](CC(C)C)C(N)=O` [Peptide 6] (H-KVTA[dM]KCFLL-NH2), the IC50 in data set [1] was 292 µM.

In data set [1], `CSCC[C@H](NC(=O)[C@H](C)NC(=O)[C@@H](NC(=O)[C@@H](NC(=O)[C@@H](N)CCCCN)C(C)C)[C@@H](C)O)C(=O)N[C@@H](CCCCN)C(=O)N[C@H](CS)C(=O)N[C@@H](Cc1ccccc1)C(=O)N[C@@H](CC(C)C)C(=O)N[C@@H](CC(C)C)C(N)=O` [Peptide 8] (H-KVTAMK[dC]FLL-NH2) registered an IC50 of 103 µM.

As to `CSCC[C@H](NC(=O)[C@@H](C)NC(=O)[C@@H](NC(=O)[C@@H](NC(=O)[C@H](N)CCCCN)C(C)C)[C@@H](C)O)C(=O)N[C@@H](CCCCN)C(=O)N[C@@H](CSSC[C@H](NC(=O)[C@H](CCCCN)NC(=O)[C@H](CCSC)NC(=O)[C@@H](C)NC(=O)[C@@H](NC(=O)[C@@H](NC(=O)[C@H](N)CCCCN)C(C)C)[C@@H](C)O)C(=O)N[C@@H](Cc1ccccc1)C(=O)N[C@@H](CC(C)C)C(=O)N[C@@H](CC(C)C)C(N)=O)C(=O)N[C@@H](Cc1ccccc1)C(=O)N[C@@H](CC(C)C)C(=O)N[C@@H](CC(C)C)C(N)=O` [Peptide 14] (I: H-[dK]VT[dA]MKCFLL-NH2 / II: H-[dK]VT[dA]MKCFLL-NH2; disulfide I:7-II:7), the solubility entry in data set [2] was “completely soluble”. In data set [3], the “% inhibition” value turned out to be 92%. Half-maximal inhibition in data set [1] (IC50) required 12 µM.

“KVTAMKCFLL-NH2 [Peptide 1, reference compound]” gave an IC50 in data set [1] of 130 µM.

`CSCC[C@H](NC(=O)[C@H](C)NC(=O)[C@@H](NC(=O)[C@@H](NC(=O)[C@@H](N)CCCCN)C(C)C)[C@@H](C)O)C(=O)N[C@H](CCCCN)C(=O)N[C@@H](CS)C(=O)N[C@@H](Cc1ccccc1)C(=O)N[C@@H](CC(C)C)C(=O)N[C@@H](CC(C)C)C(N)=O` [Peptide 7] (H-KVTAM[dK]CFLL-NH2): the IC50 in data set [1] worked out at 168 µM.
